According to US20050038113A1, “Valproic acid and derivatives for the combinatorial therapeutic treatment of human cancers and for the treatment of tumor metastasis and minimal residual disease” (G2M Cancer Drugs AG, priority 2001, published 2005):

Experiments:
[1] = system: wild-type cells (hematopoietic progenitor cells); experiment: X-ray sensitivity, colonies in methylcellulose; type: cell-based, Murine; conditions: VPA 1 mM, X-ray 2 Gy
Procedure: Lin- cells were transduced as described for FIG. 11 (see also methods in example 10 for details), and sorted by FACS. 12 hours after sorting, cells were washed with PBS, and then incubated for 8-12 hours in medium with cytokines [data presented in FIG. 12 using IL-3 (20 ng/ml), IL-6 (20 ng/ml), SCF (100 ng/ml), G-CSF (60 ng/ml), GM-CSF (20 ng/ml)] or without cytokines (data not shown). […] Finally, cells were plated in methylcellulose containing medium (StemCell Technologies) in the presence of cytokines (IL3, IL6, SCF, G- and GM-CSF) for 8-10 days. For FIG. 12 uninfected cells (“Control”), or cells expressing GFP alone (“Empty Vector”), or cells expressing GFP and PML-RAR (“PML-RAR”) were used. 8 days after plating in methylcellulose, the total number of colonies was measured.

[2] = system: A-549 non-small cell lung cancer cells; experiment: SRB-assay, reduction in total cellular biomass; type: cell-based, human; conditions: 0.75 mM VPA in combination with Gemcitabine, 48 hours, compared to either alone
Procedure: (§1) The reduction in cellular biomass was measured by SRB-assay. For this assay cells were seeded in 96 well culture dishes at densities between 3000 and 8000 cells per well. […] Cultures were fixed with cold TCA producing a final TCA concentration of 10%. After 1 hour of incubation at 4° C. the cells were washed five times with water and air dried. Fixed cells were stained for 30 minutes with 0,4% (wt/vol) Sulforhodamine B (SRB) dissolved in 1% acetic acid and washed four times with 1% acetic acid to remove unbound dye. After air drying bound dye was solubilized with 10 mM unbuffered Tris base (pH 10,5) for 5 minutes. Optical densities were read on a Titertek Multiskan Plus spectrophotometric plate reader at 550 nm. Six test wells for each dose-response were set in parallel with 12 growth control wells per cell line. A measure of the cell population density at time 0 (To; the time at which the drug was added) was also made from 12 extra reference wells of cells fixed with TCA just prior to drug addition to the test plates. Background OD of complete medium with 5% FBS fixed and stained as described above was also determined in 12 separate wells. From the unprocessed OD data from each microtiter plate the background OD measurements (i.e. OD of complete medium plus stain and OD of cells at T0) were subtracted thus giving the reduction of cellular biomass of the cells.

[3] = system: COLO320DM colon cancer cells; experiment: SRB-assay, reduction in total cellular biomass; type: cell-based, human; conditions: 0.75 mM VPA in combination with Camptothecin, 48 hours
Procedure: as §1

[4] = system: human endothelial cells; experiment: endothelial cell activation (anti-angiogenesis); type: cell-based; conditions: VPA and inhibitors of VEGF-R tyrosine kinase activity at the same time, vs individual drugs alone
Procedure: In addition, the effect of inhibitors of vascular endothelial growth factor receptor (VEGF-R) tyrosine kinase activity was tested on these cells since VEGF-R inhibitors are known to act anti-angiogenic in model systems of tumor-associated endothelial cell activation (e.g. vascular tube formation and/or endothelial cell activation).

[5] = system: primary AML blasts from AML patients; experiment: ex vivo differentiation, viability and apoptosis of leukemic blasts; type: cell-based, human; conditions: for myeloid differentiation: M0, M2 and M4 FAB subtypes
Procedure: Each point represents the mean of a set of data determined in triplicate (Example 15). VPA may cause synergistic therapeutic responses.
Cases were classified according to the French-American-British (FAB) classification (Bennett et al., Ann Intern Med 103, 1985). Cytogenetic analysis and RT-PCR tests were performed to rule out the presence of the APL associated fusion genes according to standard methods as described (Mandelli et al., Blood 90, 1997; Mancini et al., Br J Haematol. 91, 1995; Grimwade et al., Blood 90, 1999).

[6] = system: MCF-7 estrogen-dependent breast cancer cells; experiment: SRB-assay, reduction in total cellular biomass; type: cell-based, human
Procedure: as §1
(§2) The effect on the reduction in total cellular biomass was measured by SRB-assay (see example 1 for assay and read-out procedure details).
(§3) Results using MCF-7 estrogen-dependent breast cancer cells are presented in FIG. 18 and using DU-145 prostate cancer cells in FIG. 19. […] The effect on cell growth was measured by SRB-assay as described in example 1.

[7] = system: DU-145 prostate cancer cells; experiment: SRB-assay, reduction in total cellular biomass; type: cell-based, human
Procedure: as §1, §2, §3

[8] = system: control cells (lin-, PINCO empty vector or uninfected); experiment: myeloid differentiation (Mac-1, FACS) of transduced hematopoietic progenitors; type: cell-based, Murine
Procedure: Murine hematopoietic progenitors (lin-) were transduced with a retroviral vector encoding PML-RAR, and GFP as a marker. […] Myeloid differentiation was scored by analyzing the presence of the differentiation marker Mac-1.
Murine hematopoietic progenitors were purified from the bone marrow of 129 mice on the basis of the absence of lineage differentiation markers (lin-). Lin- cells were grown for 48 hours in the presence of IL-3 (20 ng/ml), IL-6 (20 ng/ml), SCF (100 ng/ml), and then attached to non-tissue culture treated plates coated with Retronectin (Takara-Shuzo). Cells were then transduced by incubation with the supernatant from Phoenix ecotropic packaging cells (supplemented with fresh serum, and IL-3, IL-6, and SCF as above), transiently transfected with the control retroviral vector PINCO, or PINCO-PML-RAR. After 60 hours, GFP+cells were sorted by FACS, and seeded in methylcellulose plates supplemented as above, plus G-CSF (60 ng/ml) and GM-CSF (20 ng/ml). […] After 8-10 days, cells were analyzed for the presence of the myeloid differentiation marker Mac-1 by FACS. […] Uninfected cells, and cells infected with the control PINCO vector behaved identically (data not shown).
For FIG. 11 Lin- cells were transduced with the indicated vectors (control: PINCO, empty vector encoding GFP alone), and GFP+cells were sorted by FACS. […] Differentiation was assessed after 8-10 days by analysis of the myeloid differentiation marker Mac-1.

[9] = VPA in combination with 100 nM 1α,25 Dihydroxyvitamin D3, 48 hours, vs either alone

Structure (SMILES): CCCC(CCC)C(=O)O [VPA, 2-propylpentanoic acid]
- X-ray sensitivity [1]: slightly decreased the sensitivity
- reduction in cellular biomass [2]: clear additive reduction in cellular biomass
- reduction in cellular biomass [3]: clear reduction in cellular biomass
- activation of endothelial cells [4]: at least additive effect
- myeloid differentiation ([5]; VPA as a single agent): partial myeloid differentiation
- positive cells in the NBT dye reduction assay ([5]; VPA in combination with RA): up to 65%
- myeloid differentiation of blasts from primary or relapsed AMLs ([5]; VPA in combination with RA, 3 and 2 cases studied): induced myeloid differentiation
- myeloid differentiation ([5]; VPA in combination with RA): complete and thus synergistic myeloid differentiation
- induction of apoptosis ([5]; combination of VPA plus RA compared to VPA or RA alone): strongly enhanced, often in a synergistic fashion
- apoptosis of AML blasts (FACS, propidium-iodide) ([5]; single agent, 4 cases tested): effective in inducing apoptosis
- reduction in cellular biomass ([6]; 0.75 mM VPA in combination with Paclitaxel, 48 hours, compared to either alone): clear additive reduction in cellular biomass
- effect of the combination treatment ([6]; VPA in combination with 100 nM 1α,25 Dihydroxyvitamin D3, 48 hours): slight synergistic effect
- reduction in cellular biomass [6, 9]: at least additive reduction in cellular biomass
- reduction of cellular biomass ([7]; 1 mM VPA in combination with lower concentrations of cis Platinum, 48 hours): synergistic reduction of cellular biomass
- reduction in cellular biomass [7, 9]: at least additive reduction in cellular biomass
- number of colonies ([8]; VPA at higher concentrations (>3 mM), most likely induction of cell death, data not shown): reduction in the number of colonies
- number of Mac-1+ cells and number of colonies ([8]; VPA up to concentrations of 1 mM): did not cause significant changes
- differentiation of control cells ([8]; VPA with cytokines): did not affect differentiation
